Test results taken from patent publication US20130123618A1, “Imaging Agents” (priority 2008, published 2013).
Read-outs that look alike come from different tables or passages of the source.

Experiments:
[1] = system: A549, human lung cancer cells implanted in flanks; assay: tissue distribution in SCID mice bearing A549 tumors; type: in vivo; conditions: for tissue distribution, blood / tissue distribution, bone / tissue distribution, brain / tissue distribution, heart / tissue distribution, kidney / tissue distribution, liver / tissue distribution, lung / tissue distribution, muscle / tissue distribution, pancreas / tissue distribution, spleen / tissue distribution, tumor: A549 tumor-bearing SCID mice, tail vein, ave, listed as Anti 2-[^18F]FACPC Enantiomer 2
Procedure: (§1) For the in vitro amino acid uptake studies, all cells can be grown to monolayer confluency in T-175 culture flasks [Corning, Corning, N.Y.] (approx. 1×10^8 cells/flask) in Dulbecco's Modified Eagle's Medium (DMEM) [Sigma, St. Louis, Mo.] in a humidified incubator (37° C., 5% CO2/95% air). Media are supplemented with 10% fetal calf serum [Hyclone, Logan, Utah], and antibiotics (10,000 U/ml penicillin and 10 mg/ml streptomycin) (Sigma, St. Louis, Mo.). For tissue culture passage, monolayer cells are detached by gentle trypsinization, resuspended in complete media, and split 1:10 into new T-flasks. Cultures are passaged weekly, and fed fresh media every 2 to 3 days. To initiate tumor growth in SCID mice, 1×10^6 cells are injected s.c. bilaterally into the flanks (inguinal region) of the recipient animals using a 1 ml syringe with a 27 gauge needle. Ex vivo experiments can be performed with animals containing tumors weighing between 500 mg and 1 g, as estimated by caliper measurement (tumor weight=(π/6)*abc, where a, b and c are the tumor length, width and height, respectively).
(§2) Tissue distribution of the compounds is measured in SCID mice (average weight, 20-25 g) bearing human tumors as follows. The candidate radioligands (20 uCi in 0.4 ml 0.9% NaCl) are injected into the tail vein of tumor-bearing mice. […] Tissues (blood, heart, liver, lungs, kidneys, bone, thyroid, muscle, brain and tumor) are excised, rinsed in saline, and blotted dry. The tissues are weighed, placed into 12×75 mm glass vials, the radioactivity determined with a gamma counter, and the percent dose/gram calculated. Total activities of blood and muscle are calculated by assuming that they account for 7% and 40% of the total body mass, respectively.
(§3) Tables 3-7 show the results of the biodistribution studies with the separate enantiomers of anti-2-[^18F]FACPC and racemic anti-2-[^18F]FACBC as a comparison in SCiD mice implanted in their flanks with A549, human lung cancer cells and DU145, human prostate cancer cells.

[2] = system: DU145, human prostate cancer cells implanted in flanks; assay: tissue distribution in SCID mice bearing DU145 tumors; type: in vivo; conditions: DU145 tumors, SCID mice, time points sampled post injection
Procedure: as §1, §2, §3

9L Rat gliosarcoma cells = assay: in vitro amino acid uptake in 9L cells; type: cell-based
Description: (§4) Compounds have been evaluated in vitro for tumor binding specificity (i.e. uptake cells) using a variety of tumor cell lines available in the art, along with reference compounds such as Me-AlB and BCH. Detailed description of these assays can be found in Martarello et al. (2002) Journal of Medicinal Chemistry, 45:2250-2259 and McConathy et al. (2003) Nuclear Medicine and Biology, 30:477-490. These so called “amino acid uptake studies” are typically carried out with radiolabeled compounds in at least five phenotypically different human tumor cell lines (e.g., A549 lung carcinoma, MB468 breast carcinoma, DU145 prostate carcinoma-androgen independent, LnCap-androgen dependent, SKOV3 ovarian carcinoma, U87 glial blastoma, MIA PaCa-2 pancreas carcinoma, MDA MB231 breast carcinoma). These tumor cell lines can be grown either in vitro or in vivo with severe combined immunodeficiency (SCID) mice as a host. The afore-mentioned tumor cell lines are available at the Winship Cancer Institute of Emory University.
(§5) For the in vitro amino acid uptake studies, all cells can be grown to monolayer confluency in T-175 culture flasks [Corning, Corning, N.Y.] (approx. 1×10^8 cells/flask) in Dulbecco's Modified Eagle's Medium (DMEM) [Sigma, St. Louis, Mo.] in a humidified incubator (37° C., 5% CO2/95% air). […]
(§6) In the in vitro studies the uptake rate of each amino acid compound is measured in each tumor line, as well as the dominant transport mechanisms of each tumor cell line. After trypsinization, cells are resuspended in serum-free media, then counted on a hemocytometer, with viability assessed through Trypan blue staining. […] The vials are placed in a Cobra-II gamma counter (Packard, Meriden, Conn.), with the activity per cell number determined. […] Saline washes are performed as described above, and the filtered cells' radioactivity determined on the gamma counter. […]
(§7) The uptake of all compounds were measured in human and rat cancer cell lines and the dominant transport (“A” and “L”) mechanism of each culture were determined. […]

[3] = system: DU145 Human Prostate carcinoma cells; assay: in vitro amino acid uptake in DU145 cells; type: cell-based
Description: as §4, §5, §6, §7

[4] = system: A549 Human Lung adenocarcinoma cells; assay: in vitro amino acid uptake in A549 cells; type: cell-based
Description: as §4, §5, §6, §7

U87 Human Glioma cells = assay: in vitro amino acid uptake in U87 cells; type: cell-based
Description: as §4, §5, §6, §7

[5] = system: MIA PaCa-2 Human Pancreas carcinoma cells; assay: in vitro amino acid uptake in MIA PaCa-2 cells; type: cell-based
Procedure: (§8) Compounds have been evaluated in vitro for tumor binding specificity (i.e. uptake cells) using a variety of tumor cell lines available in the art, along with reference compounds such as Me-AlB and BCH. Detailed description of these assays can be found in Martarello et al. (2002) Journal of Medicinal Chemistry, 45:2250-2259 and McConathy et al. (2003) Nuclear Medicine and Biology, 30:477-490. […]
as §6, §7

[6] = system: MDA MB231 Human Breast carcinoma cells; assay: in vitro amino acid uptake in MDA MB231 cells; type: cell-based
Procedure: as §8, §6, §7

[7] = system: SKOV3 Human Ovarian carcinoma cells; assay: in vitro amino acid uptake in SKOV3 cells; type: cell-based
Description: as §4, §5, §6, §7

[8] = system: MDA MB468 Human Breast carcinoma cells; assay: in vitro amino acid uptake in MDA MB468 cells; type: cell-based
Description: as §4, §5, §6, §7

[9] = system: LnCap Human Prostate carcinoma cells; assay: in vitro amino acid uptake in LnCap cells; type: cell-based
Procedure: as §8, §6, §7

tumor cells = assay: overall conclusion of uptake studies in cancer cells in vitro; type: cell-based
Procedure: In the in vitro studies the uptake rate of each amino acid compound is measured in each tumor line, as well as the dominant transport mechanisms of each tumor cell line. After trypsinization, cells are resuspended in serum-free media, then counted on a hemocytometer, with viability assessed through Trypan blue staining. Approximately 1×10^7 cells are exposed to each compound (15 μCi) in 15 ml of amino acid free media for 5, 10, 15, 30 and 60 minutes at 37° C. Cells are then centrifuged at 150×g for 5 minutes, rinsed in 5 ml cold-saline, recentrifuged, resuspended in 3 ml saline, and placed into 12×75 mm glass vials (Fisher, Pittsburgh, Pa.). The vials are placed in a Cobra-II gamma counter (Packard, Meriden, Conn.), with the activity per cell number determined. Inhibition studies determine the dominant transport mechanism (L, A or ASC) for each line [Martarello et al. (2002) supra; McConathy et al. (2003) supra]. For these studies, cells are exposed to the compounds for 30 minutes in amino acid free media containing one of three inhibitors (2-amino-norbornyl-2-carboxylic acid (BCH), 10 mM; α-(methylamino)-isobutyric acid (MeAlB), 10 mM; and an alanine-serine-cysteine mixture 1:1:1 (acs), 10 mM). Saline washes are performed as described above, and the filtered cells' radioactivity determined on the gamma counter. Comparisons with the 30 minute control uptake indicate the major transporters used. Results of these studies are found in FIGS. 1-18.
Approximately 10^6 cells were exposed to the [^18F]amino acid candidate (5 μCi) in 3 ml of amino acid-free media±transporter inhibitors (10 mM) for 30 minutes under incubation conditions by the method previously described (McConathy, J.; Martarello, L.; Malveaux, E.; Camp, V.; Bowers, G.; Olson, J.; Goodman, M. (2002) Radiolabeled amino acids for tumor imaging with PET: radiosynthesis and biological evaluation of [^18F]2-amino-3-fluoro-2-methylpropanoic acid and [^18F]3-fluoro-2-methyl-2-(methylamino)-propanoic acid. J. Med. Chem. 45, 2240-2249). The inhibition studies determined the dominant transport mechanism (L, A) for each candidate PET amino acid for each tumor model. 2-Methylaminoisobutyric acid (MeAlB) and 2-aminobicyclo-[2.2.1]-heptane-2-carboxylic acid (BCH) serve as inhibitors for the “A”, “L” transport systems, respectively.

Morris 51236 hepatomas = conditions: cited from earlier work
tumor lesions = conditions: 7 human subjects, PET scanner; cited from earlier work
[10] = system: tumor lesions in 33 patients; conditions: single photon rectilinear scanner; cited from earlier work
[11] = carbon-14 labeled, rats transplanted with Morris 51236 hepatomas

## N[C@]1(C(=O)O)CCC[C@@H]1[18F] (mixture of isomers) [Enantiomer 13, (1S,2S) and (1R,2R) anti-1-amino-2-[^18F]fluorocyclopentyl-1-carboxylic acid]
[1]; A549 tumors, SCID mice, time points sampled post injection
  uptake of radioactivity in the tumors compared with muscle: greater than muscle
[2]
  uptake of radioactivity in the tumors compared with muscle: greater than muscle

## N[C@]1(C(=O)O)CCC[C@@H]1[18F] (single isomer, unassigned; enantiomer 2) [Enantiomer 2, anti-2-[^18F]FACPC]
9L Rat gliosarcoma cells
  % Dose uptake per 0.5 × 10−6 Cells: 7.5 % Dose/0.5 × 10^−6
[3]
  % Dose uptake per 0.5 × 10−6 Cells: 4.7 % Dose/0.5 × 10^−6
[4]
  % Dose uptake per 0.5 × 10−6 Cells: 9.6 % Dose/0.5 × 10^−6
U87 Human Glioma cells
  % Dose uptake per 0.5 × 10−6 Cells: 17 % Dose/0.5 × 10^−6
[5]
  % Dose uptake per 0.5 × 10−6 Cells: 3.8 % Dose/0.5 × 10^−6
[6]
  % Dose uptake per 0.5 × 10−6 Cells: 6.4 % Dose/0.5 × 10^−6
[7]
  % Dose uptake per 0.5 × 10−6 Cells: 5.5 % Dose/0.5 × 10^−6
[8]
  % Dose uptake per 0.5 × 10−6 Cells: 7.5 % Dose/0.5 × 10^−6
[9]
  % Dose uptake per 0.5 × 10−6 Cells: 3.8 % Dose/0.5 × 10^−6
[1]; 15 min
  tissue distribution, blood: 3.68 percent dose/gram
  tissue distribution, bone: 2.50 percent dose/gram
  tissue distribution, brain: 0.53 percent dose/gram
  tissue distribution, heart: 3.18 percent dose/gram
  tissue distribution, kidney: 10.81 percent dose/gram
  tissue distribution, liver: 2.86 percent dose/gram
  tissue distribution, lung: 4.75 percent dose/gram
  tissue distribution, muscle: 2.07 percent dose/gram
  tissue distribution, pancreas: 40.68 percent dose/gram
  tissue distribution, spleen: 9.37 percent dose/gram
  tissue distribution, tumor: 8.13 percent dose/gram
[1]; 60 min
  tissue distribution, blood: 1.17 percent dose/gram
  tissue distribution, bone: 1.77 percent dose/gram
  tissue distribution, brain: 0.58 percent dose/gram
  tissue distribution, heart: 1.82 percent dose/gram
  tissue distribution, kidney: 3.73 percent dose/gram
  tissue distribution, liver: 1.22 percent dose/gram
  tissue distribution, lung: 1.77 percent dose/gram
  tissue distribution, muscle: 1.78 percent dose/gram
  tissue distribution, pancreas: 16.42 percent dose/gram
  tissue distribution, spleen: 2.95 percent dose/gram
  tissue distribution, tumor: 5.78 percent dose/gram
Tumor cells
  selective uptake in tumor cells: selectively taken up in tumor cells

## NC1(C(=O)O)CCC1 [ACBC]
Morris 51236 hepatomas; rat, in vivo
  tumor uptake: 4.6 % dose/g

## NC1(C(=O)O)CCCCC1 [ACHC, 1-amino-cyclohexane-1-carboxylic acid]
Morris 51236 hepatomas; [11]
  tumor uptake: 0.9 % dose/g

## NC1(C(=O)O)CCCC1 [ACPC, 1-amino-cyclopentane-1-carboxylic acid]
Morris 51236 hepatomas; [11]
  tumor uptake: 3.6 % dose/g

## NC1(C(=O)O)CC1 [ACPRC, 1-amino-cyclopropane-1-carboxylic acid]
Morris 51236 hepatomas; [11]
  tumor uptake: 1.2 % dose/g

## NC1([11C](=O)O)CCC1 [[^11C]ACBC, 1-aminocyclobutane-1-[^11C]carboxylic acid]
Tumor lesions
  uptake in lesions: increased uptake was observed in lesions in all subjects

## NC1([11C](=O)O)CCCC1 [[^11C]ACPC, 1-Aminocyclopentane-1 [^11C]Carboxylic Acid]
[10]
  lesions with increased uptake: 70%
Tumor lesions
  uptake in lesions: increased uptake was observed in lesions in all subjects
